Measurements: PubChem BioAssay AID256 (DTP/NCI, 2004)
Where “and” joins values, the source holds several entries; their conditions need not be identical. Identical values can stand only once. Inconclusive results and toxic doses are left out. How the source made its calls: active means survival T/C of 150% or more; inactive means T/C below 125% in these data.

Test system: CD2F1 mice, L1210 leukemia ip, survival T/C
Assay: NCI In Vivo Anticancer Drug Screen. Data for tumor model L1210 Leukemia (intraperitoneal) in CD2F1 (CDF1) mice
Settings: higher = longer survival
Procedure, shortened: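 Activity against a transplanted murine tumor was judged by comparing the compound group with a vehicle group. The outcome in the treated animals was divided by that in the controls.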

[1] = endpoint: mean survival time, dose: 100.0 mg/kg/injection, schedule: Q01DX001 (ip), vehicle: saline with Tween-80
[2] = endpoint: mean survival time, dose: 200.0 mg/kg/injection, schedule: Q01DX001 (ip), vehicle: saline with Tween-80
[3] = endpoint: mean survival time, dose: 400.0 mg/kg/injection, schedule: Q01DX001 (ip), vehicle: saline with Tween-80

Measured: T/C

CCCCCCCCCCCCCCCC(=O)N(CCC#N)C(C)(C)CCC(C)(C)N(CCC#N)C(=O)CCCCCCCCCCCCCCC
inactive: endpoint: mean survival time, dose: 25.0 mg/kg/injection, schedule: Q01DX009 (ip), vehicle: Klucel (hydroxypropylcellulose) (HPC) 95 % of control | endpoint: mean survival time, dose: 50.0 mg/kg/injection, schedule: Q01DX009 (ip), vehicle: Klucel (hydroxypropylcellulose) (HPC) 95 % of control | endpoint: mean survival time, dose: 100.0 mg/kg/injection, schedule: Q01DX009 (ip), vehicle: Klucel (hydroxypropylcellulose) (HPC) 88 % of control | endpoint: mean survival time, dose: 200.0 mg/kg/injection, schedule: Q01DX009 (ip), vehicle: Klucel (hydroxypropylcellulose) (HPC) 88 % of control

Fc1ccc(CC(F)F)cc1
inactive: [1] 107 % of control | [2] 98 % of control | [3] 103 % of control

COC(=O)C1(C)CCCC2(C)C3CCC(C)(CCO)CC3C(O)CC12 (centres undefined)
inactive: endpoint: mean survival time, dose: 100.0 mg/kg/injection, schedule: Q01DX001 (ip), vehicle: saline sonified 102 % of control | [1] 96 % of control | endpoint: mean survival time, dose: 200.0 mg/kg/injection, schedule: Q01DX001 (ip), vehicle: saline sonified 101 % of control | [2] 101 % of control | endpoint: mean survival time, dose: 400.0 mg/kg/injection, schedule: Q01DX001 (ip), vehicle: saline sonified 93 % of control | [3] 105 % of control

CCCC[N+](CCCC)(CCCC)CCCC.[Cl-].[Cl-].[Cl-].[Cl-].[Cl-].[Cl-].[Cl-].[Cl-].[Re].[Re]
inactive: endpoint: mean survival time, dose: 100.0 mg/kg/injection, schedule: Q04DX002 (ip), vehicle: saline with Tween-80 112 % of control | endpoint: mean survival time, dose: 200.0 mg/kg/injection, schedule: Q04DX002 (ip), vehicle: saline with Tween-80 112 % of control | endpoint: mean survival time, dose: 400.0 mg/kg/injection, schedule: Q04DX002 (ip), vehicle: saline with Tween-80 116 % of control

CC(C)[C@](O)(C(=O)OCC1=CC[N+]2([O-])CC[C@@H](O)[C@@H]12)[C@H](C)O (some centres undefined)
inactive: endpoint: mean survival time, dose: 50.0 mg/kg/injection, schedule: Q01DX009 (ip), vehicle: water 116 % of control | endpoint: mean survival time, dose: 750.0 mg/kg/injection, schedule: Q01DX001 (ip), vehicle: saline 96 % of control | endpoint: mean survival time, dose: 1000.0 mg/kg/injection, schedule: Q01DX001 (ip), vehicle: saline 101 % of control | endpoint: mean survival time, dose: 1250.0 mg/kg/injection, schedule: Q01DX001 (ip), vehicle: saline 97 % of control | endpoint: mean survival time, dose: 1500.0 mg/kg/injection, schedule: Q01DX001 (ip), vehicle: saline 105 % of control | endpoint: mean survival time, dose: 2000.0 mg/kg/injection, schedule: Q01DX001 (ip), vehicle: saline 117 % of control | endpoint: mean survival time, dose: 3000.0 mg/kg/injection, schedule: Q01DX001 (ip), vehicle: saline 115 % of control

COc1ccc2c3c1OC1C(=O)C4CC5(c6c(O)ccc(O)c64)C(C2)N(C)CCC315 (centres undefined)
inactive: endpoint: mean survival time, dose: 200.0 mg/kg/injection, schedule: Q04DX003 (ip), vehicle: saline with Tween-80 86 % of control | endpoint: mean survival time, dose: 400.0 mg/kg/injection, schedule: Q04DX003 (ip), vehicle: saline with Tween-80 86 % of control

CCCCOC(=O)CSSCC(=O)OCCCC
inactive: endpoint: mean survival time, dose: 50.0 mg/kg/injection, schedule: Q01DX009 (ip), vehicle: saline with Tween-80 101 % of control | endpoint: mean survival time, dose: 100.0 mg/kg/injection, schedule: Q01DX009 (ip), vehicle: saline with Tween-80 101 % of control | endpoint: mean survival time, dose: 200.0 mg/kg/injection, schedule: Q01DX009 (ip), vehicle: saline with Tween-80 93 % of control

O=c1[nH]c(-c2ccccc2)nc(-c2ccccc2)c1Cc1cc2c(cc1O)OCC2
inactive: endpoint: mean survival time, dose: 100.0 mg/kg/injection, schedule: Q01DX001 (ip), vehicle: saline 103 % of control | endpoint: mean survival time, dose: 200.0 mg/kg/injection, schedule: Q01DX001 (ip), vehicle: saline 92 % of control | endpoint: mean survival time, dose: 400.0 mg/kg/injection, schedule: Q01DX001 (ip), vehicle: saline 92 % of control

CO[C@@]12[C@@H]3N[C@@H]3CN1C1=C(C(=O)C(NCCN)=C(C)C1=O)[C@@H]2COC(N)=O
inactive: endpoint: median survival time, dose: 0.75 mg/kg/injection, schedule: Q01DX001 (ip), vehicle: water 123 % of control and 110 % of control | endpoint: median survival time, dose: 1.5 mg/kg/injection, schedule: Q01DX001 (ip), vehicle: water 111 % of control | endpoint: median survival time, dose: 6.0 mg/kg/injection, schedule: Q01DX001 (ip), vehicle: water 94 % of control

CC1(COCCOCC2(C)CO2)CO1 (centres undefined)
inactive: endpoint: mean survival time, dose: 100.0 mg/kg/injection, schedule: Q01DX009 (ip), vehicle: saline 111 % of control | endpoint: mean survival time, dose: 200.0 mg/kg/injection, schedule: Q01DX009 (ip), vehicle: saline 114 % of control | endpoint: mean survival time, dose: 264.0 mg/kg/injection, schedule: Q04DX003 (ip), vehicle: saline 116 % of control | endpoint: mean survival time, dose: 400.0 mg/kg/injection, schedule: Q04DX003 (ip), vehicle: saline 113 % of control | endpoint: mean survival time, dose: 600.0 mg/kg/injection, schedule: Q04DX003 (ip), vehicle: saline 121 % of control
